Patent US20240246942A1, “KINASE INHIBITORS FOR THE TREATMENT OF NEURODEGENERATIVE DISEASES” (priority 2020, published 2024)

Tests used:
Experiment in all cases: biochemical
[1] = target: T1, panel of 374 wild-type kinases (Homo sapiens, UniProt P42679); conditions: read-out: % Enzyme Activity (relative to DMSO controls), CTK/MATK
T1 construct: purchased Reaction Biology Corporation
T1 sequence (P42679 1-507): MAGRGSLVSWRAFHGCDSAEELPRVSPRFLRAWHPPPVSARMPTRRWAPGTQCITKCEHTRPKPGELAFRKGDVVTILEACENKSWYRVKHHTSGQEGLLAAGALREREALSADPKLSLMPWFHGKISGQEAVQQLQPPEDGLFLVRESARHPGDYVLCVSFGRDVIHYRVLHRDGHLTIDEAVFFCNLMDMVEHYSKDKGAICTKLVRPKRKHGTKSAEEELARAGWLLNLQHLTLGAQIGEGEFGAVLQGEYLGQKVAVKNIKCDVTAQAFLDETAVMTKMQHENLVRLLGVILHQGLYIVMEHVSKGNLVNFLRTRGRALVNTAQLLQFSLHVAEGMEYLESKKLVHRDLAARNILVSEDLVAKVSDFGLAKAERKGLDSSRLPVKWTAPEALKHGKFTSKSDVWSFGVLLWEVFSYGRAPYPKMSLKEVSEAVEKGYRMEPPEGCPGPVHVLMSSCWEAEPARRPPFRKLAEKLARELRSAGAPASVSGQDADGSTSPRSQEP

[2] = target: T2, panel of 374 wild-type kinases (Homo sapiens, UniProt P78362); conditions: read-out: % Enzyme Activity (relative to DMSO controls), kinase SRPK2
T2 construct: purchased Reaction Biology Corporation

[3] = target: T3, panel of 374 wild-type kinases (Homo sapiens, UniProt P80192); conditions: read-out: % Enzyme Activity (relative to DMSO controls), MLK1/MAP3K9
T3 construct: purchased Reaction Biology Corporation

[4] = target: T4, panel of 374 wild-type kinases (Homo sapiens, UniProt Q05655); conditions: read-out: % Enzyme Activity (relative to DMSO controls), kinase PKCd
T4 construct: purchased Reaction Biology Corporation

[5] = target: T5, panel of 374 wild-type kinases (Homo sapiens, UniProt Q13976); conditions: read-out: % Enzyme Activity (relative to DMSO controls), kinase PKG1a
T5 construct: purchased Reaction Biology Corporation
T5 sequence (Q13976 1-671): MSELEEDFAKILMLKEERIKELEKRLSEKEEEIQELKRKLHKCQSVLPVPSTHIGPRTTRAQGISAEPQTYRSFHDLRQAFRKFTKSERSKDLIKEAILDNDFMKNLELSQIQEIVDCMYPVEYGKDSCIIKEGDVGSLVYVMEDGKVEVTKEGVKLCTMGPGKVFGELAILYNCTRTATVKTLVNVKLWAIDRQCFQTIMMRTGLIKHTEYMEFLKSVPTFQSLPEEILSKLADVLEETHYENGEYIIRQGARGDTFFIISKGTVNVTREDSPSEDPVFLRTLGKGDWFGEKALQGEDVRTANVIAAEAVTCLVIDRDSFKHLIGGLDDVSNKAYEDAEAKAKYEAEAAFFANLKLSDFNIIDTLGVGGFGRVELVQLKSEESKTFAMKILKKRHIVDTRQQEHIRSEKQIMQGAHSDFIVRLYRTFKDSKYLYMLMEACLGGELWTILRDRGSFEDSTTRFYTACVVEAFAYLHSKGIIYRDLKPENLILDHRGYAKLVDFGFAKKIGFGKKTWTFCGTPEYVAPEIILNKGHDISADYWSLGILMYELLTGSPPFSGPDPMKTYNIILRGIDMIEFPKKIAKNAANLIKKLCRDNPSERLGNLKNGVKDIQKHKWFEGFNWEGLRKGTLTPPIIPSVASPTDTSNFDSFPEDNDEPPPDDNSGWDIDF

[6] = target: T6, panel of 374 wild-type kinases (Homo sapiens, UniProt Q15831); conditions: read-out: % Enzyme Activity (relative to DMSO controls), LKB1
T6 construct: purchased Reaction Biology Corporation
T6 sequence (Q15831 1-433): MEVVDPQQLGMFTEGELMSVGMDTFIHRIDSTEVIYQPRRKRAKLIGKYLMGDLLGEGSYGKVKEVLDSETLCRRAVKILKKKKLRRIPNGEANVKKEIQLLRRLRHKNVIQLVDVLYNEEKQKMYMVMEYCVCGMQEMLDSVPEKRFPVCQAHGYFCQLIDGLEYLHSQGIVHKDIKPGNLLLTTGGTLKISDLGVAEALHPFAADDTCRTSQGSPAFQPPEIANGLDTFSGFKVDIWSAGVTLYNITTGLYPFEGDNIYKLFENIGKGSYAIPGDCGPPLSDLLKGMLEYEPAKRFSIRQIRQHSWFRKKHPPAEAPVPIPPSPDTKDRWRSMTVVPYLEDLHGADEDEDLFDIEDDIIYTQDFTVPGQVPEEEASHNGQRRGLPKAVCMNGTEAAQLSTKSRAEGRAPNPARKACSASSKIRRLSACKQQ

T4 sequence (Q05655 whole entry): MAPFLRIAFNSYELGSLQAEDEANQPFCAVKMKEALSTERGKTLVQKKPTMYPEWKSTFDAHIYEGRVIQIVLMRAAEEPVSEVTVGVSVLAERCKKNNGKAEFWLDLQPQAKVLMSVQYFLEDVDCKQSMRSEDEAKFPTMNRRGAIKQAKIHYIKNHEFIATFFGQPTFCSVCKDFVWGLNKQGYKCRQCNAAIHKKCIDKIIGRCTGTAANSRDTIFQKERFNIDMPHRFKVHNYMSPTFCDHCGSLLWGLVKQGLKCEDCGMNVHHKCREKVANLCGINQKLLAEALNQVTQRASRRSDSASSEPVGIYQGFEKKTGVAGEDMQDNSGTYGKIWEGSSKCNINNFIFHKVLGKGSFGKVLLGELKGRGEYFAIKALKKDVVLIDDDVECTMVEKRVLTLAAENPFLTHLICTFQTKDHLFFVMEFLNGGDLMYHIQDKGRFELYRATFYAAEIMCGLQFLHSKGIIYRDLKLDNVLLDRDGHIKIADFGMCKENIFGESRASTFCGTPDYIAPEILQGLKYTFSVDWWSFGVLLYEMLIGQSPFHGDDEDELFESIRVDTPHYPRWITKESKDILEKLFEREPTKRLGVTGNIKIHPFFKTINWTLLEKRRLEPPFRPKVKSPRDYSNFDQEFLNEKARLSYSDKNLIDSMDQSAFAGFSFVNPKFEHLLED
T3 sequence (P80192 whole entry): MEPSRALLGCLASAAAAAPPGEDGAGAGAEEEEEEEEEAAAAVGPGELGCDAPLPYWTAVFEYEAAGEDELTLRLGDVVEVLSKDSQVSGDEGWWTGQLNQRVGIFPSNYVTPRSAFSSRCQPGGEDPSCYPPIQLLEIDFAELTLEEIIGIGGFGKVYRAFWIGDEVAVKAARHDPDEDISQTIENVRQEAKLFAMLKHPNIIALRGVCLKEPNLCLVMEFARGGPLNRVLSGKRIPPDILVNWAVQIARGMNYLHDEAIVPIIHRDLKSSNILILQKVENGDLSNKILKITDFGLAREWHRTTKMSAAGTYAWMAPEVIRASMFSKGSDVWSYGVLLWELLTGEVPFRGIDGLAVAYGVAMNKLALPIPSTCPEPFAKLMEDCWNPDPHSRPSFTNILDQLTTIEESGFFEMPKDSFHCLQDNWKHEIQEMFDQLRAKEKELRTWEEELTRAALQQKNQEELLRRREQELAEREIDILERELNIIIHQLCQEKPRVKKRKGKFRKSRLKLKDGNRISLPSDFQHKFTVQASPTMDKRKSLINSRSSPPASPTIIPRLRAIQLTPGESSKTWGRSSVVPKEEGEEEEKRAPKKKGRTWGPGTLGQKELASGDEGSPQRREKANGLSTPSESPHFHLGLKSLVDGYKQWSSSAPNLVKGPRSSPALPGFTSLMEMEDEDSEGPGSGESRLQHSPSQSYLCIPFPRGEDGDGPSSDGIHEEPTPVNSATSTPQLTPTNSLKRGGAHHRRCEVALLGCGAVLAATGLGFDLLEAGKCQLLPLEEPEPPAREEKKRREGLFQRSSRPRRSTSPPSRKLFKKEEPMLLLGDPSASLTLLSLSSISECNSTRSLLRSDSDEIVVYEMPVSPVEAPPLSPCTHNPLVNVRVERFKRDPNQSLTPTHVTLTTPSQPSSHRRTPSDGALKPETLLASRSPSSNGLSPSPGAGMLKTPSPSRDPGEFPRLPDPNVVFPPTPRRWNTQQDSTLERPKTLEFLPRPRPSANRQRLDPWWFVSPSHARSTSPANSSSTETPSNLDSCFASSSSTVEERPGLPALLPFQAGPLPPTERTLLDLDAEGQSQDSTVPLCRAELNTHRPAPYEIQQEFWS
T2 sequence (P78362 whole entry): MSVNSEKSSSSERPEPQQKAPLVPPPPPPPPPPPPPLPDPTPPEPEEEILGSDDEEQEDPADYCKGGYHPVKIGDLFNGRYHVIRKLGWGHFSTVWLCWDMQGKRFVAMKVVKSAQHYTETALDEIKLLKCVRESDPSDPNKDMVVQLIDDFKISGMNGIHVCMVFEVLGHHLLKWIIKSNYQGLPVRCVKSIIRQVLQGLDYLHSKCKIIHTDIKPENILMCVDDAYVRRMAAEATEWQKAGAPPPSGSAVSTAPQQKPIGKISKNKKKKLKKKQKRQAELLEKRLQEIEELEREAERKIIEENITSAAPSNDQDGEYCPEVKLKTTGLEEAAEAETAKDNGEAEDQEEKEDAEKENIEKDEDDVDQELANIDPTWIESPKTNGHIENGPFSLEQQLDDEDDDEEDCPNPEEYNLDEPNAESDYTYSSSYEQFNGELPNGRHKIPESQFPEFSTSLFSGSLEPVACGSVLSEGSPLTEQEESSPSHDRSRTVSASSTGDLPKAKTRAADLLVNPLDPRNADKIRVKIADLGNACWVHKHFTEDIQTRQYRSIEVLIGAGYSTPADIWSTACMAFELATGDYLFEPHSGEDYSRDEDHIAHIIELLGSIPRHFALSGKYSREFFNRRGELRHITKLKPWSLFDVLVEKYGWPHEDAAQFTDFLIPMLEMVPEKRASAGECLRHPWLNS

Row | SMILES | remaining activity at 5 µM [1] [%] | remaining activity at 5 µM [2] [%] | remaining activity at 5 µM [3] [%] | remaining activity at 5 µM [4] [%] | remaining activity at 5 µM [5] [%] | remaining activity at 5 µM [6] [%] | remaining activity at 10 µM ([1]; 10 uM) [%] | remaining activity at 10 µM ([2]; 10 uM) [%] | remaining activity at 10 µM ([3]; 10 uM) [%] | remaining activity at 10 µM ([4]; 10 uM) [%] | remaining activity at 10 µM ([5]; 10 uM) [%] | remaining activity at 10 µM ([6]; 10 uM) [%]
1 | O=C(Nc1cnn(-c2csc(C(=O)NC3COC3)c2)c1)Nc1ccccc1Cl [Compound 17, 4-(4-(3-(2-chlorophenyl)ureido)-1H-pyrazol-1-yl)-N-(oxetan-3-yl)thiophene-2-carboxamide] | 99.7 | 95.6 | 95.1 | 112 | 110 | 118 | – | – | – | – | – | –
2 | Cc1sc(C(=O)NC2COC2)cc1-n1cc(NC(=O)Nc2c(F)cccc2Cl)cn1 [Compound 27, 4-(4-(3-(2-chloro-6-fluorophenyl)ureido)-1H-pyrazol-1-yl)-5-methyl-N-(oxetan-3-yl)thiophene-2-carboxamide] | – | – | – | – | – | – | 97.8 | 114 | 87.5 | 98 | 120 | 97.6
3 | O=C(Nc1cnn(-c2csc(C(=O)NC3COC3)c2)c1)Nc1c(F)cccc1Cl [Compound 25, 4-(4-(3-(2-chloro-6-fluorophenyl)ureido)-1H-pyrazol-1-yl)-N-(oxetan-3-yl)thiophene-2-carboxamide] | 100 | 94 | 88.5 | 101 | 93.2 | 94.7 | – | – | – | – | – | –
